Data on 14 compounds can be found in patent US6855728B2, “Small-molecule modulators of hepatocyte growth factor / scatter factor activities” (North Shore-Long Island Jewish Health System, priority 2001, dated 2005).

Data set [1] relates to HGF/SF induced proliferation of HUVEC. The data set can be described thus: Endothelial cell (HUVEC) proliferation assay in the presence of exogenously-added HGF/SF. Format: cell-based, human. As to conditions: with HGF/SF; for inhibition at 2 µg/mL / inhibition at 6 µg/mL: Homo sapiens; for inhibition at 2 µg/mL: read-out: Activity at 2 microgram/ml With HGF/SF: inhibition (blocked SF); for inhibition at 6 µg/mL: read-out: Activity at 6 microgram/ml With HGF/SF: inhibition (blocked SF). From the text:
To evaluate inhibitors of activity, compounds may be evaluated directly for anti-proliferative activities, such as the inhibition of cellular proliferation, inhibition of tumor growth, inhibition of scatter, and inhibition of gene expression, and may also be evaluated on their ability to inhibit activity when exposed to cells together with. In such instances, the scatter and/or proliferative activities induced by added will be inhibited by the attendant presence of an inhibitory compound of the invention.
Cell proliferation assays Endothelial cells (HUVECs) were seeded in 48 well plates at a density of 10,000 to 20,000 cells per well in the normal growth medium (EGM-2-Clonetics) containing 2% fetal bovine serum, FGF, VEGF, IGF, ascorbic acid, EGF, GA, heparin and hydrocortisone. The cells were grown normally in the growth medium for 24 hr at 37 degrees C. and 5% CO2. The cells were then rinsed with RPMI-1% BSA and starved for 1-2 hrs. The stock solutions of all the compounds were made at a concentration of 10 mg/ml in DMSO and diluted in RPMI-1% BSA at a final concentrations of 1 to 12 microgram/ml. The cells were then washed and treated with the compounds and incubated for another 24 hr at 37 degrees C. Then ^3H thymidine (0.5 microgram/ml in RPMI-BSA) was added to the cells and incubated at 37 degrees C. for 4 to 5 hours. The unincorporated thymidine was removed by washing the cells four times with 1× PBS. Then the cells were lysed with 0.5M NaOH for 30 min and the radioactivity counted in the beta counter.

In data set [2] the test system is Endothelial cells (HUVECs). The data set is described as follows: Endothelial cell (HUVEC) proliferation assay, 3H thymidine incorporation, compound without added growth factor. Format: cell-based, human. As to conditions: for Activity at 2 microgram/ml Without HGF/SF (result in words) / inhibition at 2 µg/mL: 2 microgram/ml. An outline of the steps:
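HUVECs grown 24 h in EGM-2, starved 1-2 h in RPMI-1% BSA, then exposed 24 h at 37 degrees C to compounds at 1 to 12 microgram/ml without added growth factors. Proliferation read as 3H thymidine incorporation over 4 to 5 h; human iliac artery endothelial cells also used similarly.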
Background: Incorporation of labelled thymidine or its analogues reports DNA synthesis.

The test system of data set [3] is growth of blood vessels from subcutaneous tissue into Matrigel. The data set is described as follows: In vivo blood vessel ingrowth assay (Matrigel). As to conditions: mice, Matrigel mixed with compound injected subcutaneously, 10 days. How it is done: Angiogenesis was assayed as growth of blood vessels from subcutaneous tissue into a solid gel of basement membrane containing the test compound. Matrigel in liquid form (0.5 ml) was mixed with a compound of the invention, or basic fibroblast growth factor as a control, and injected into the abdominal subcutaneous tissue of mice as previously described (Kibbey, M. C., Grant, D. S. Auerbach, R. and Kleinman, H. K. [1992] Role of the SIKVAV site of laminin in promotion of angiogenesis and tumor growth: an in vivo Matrigel model. J. Natl. Can. Inst. 84, 1633-38). After 10 days, mice were sacrificed and the Matrigel plugs were removed, fixed, sectioned, stained and examined for ingrowth of blood vessels.

In another data set the test system is DU145 cells. The data set is described as follows: Clonogenic assay. Format: cell-based. As to conditions: clonogenic assay over 7 days. How it is done:
The effect of (4-(2-chloro-6-fluorobenzyl)-3,5-dimethyl-1H-pyrazole-1-yl)(3-(2,6-dichlorophenyl)-5-methylisoxazol-4-yl)methanone (FIG. 7) and 1-(4-chloro-3-methylphenyl)-3-(2,6-dichlorophenyl)-prop-2-en-1-one were evaluated in a clonogenic assay over 7 days.

For the next data set, the system named is another cell line. The data set can be described thus: Anti-apoptotic activity assay in another cell line. Format: cell-based. Here is the method:
Anti-apoptotic Activity Assay. The ability of compounds of the present invention to protect cells-from apoptosis was performed using a MTT viability assay with MDCK cells exposed to adriamycin (15 micromolar) to induce apoptosis. HGF/SF was evaluated as a positive control.
In another cell line, 90% protection was afforded by (4-chlorophenyl)[3-(2-(2-thienyl)vinyl)-1H-pyrazol-1-yl]methanone.

Data set [4] has as its system MDCK cells exposed to adriamycin. The data set is described as follows: Anti-apoptotic activity assay (MTT viability, adriamycin-induced apoptosis). Format: cell-based. As to conditions: for protection from adriamycin-induced apoptosis: MDCK cells; for cell viability, substance alone: without adriamycin.
A further data set deals with MDCK cells. The data set can be described thus: Scatter assay. Format: cell-based. As to conditions: 6 microgram/ml; microscopic examination. Here is the method:
Scatter Assay. A standard assay for scatter of MDCK cells was performed. Results were evaluated by microscopic examination.

A further data set addresses c-Met receptor (Homo sapiens, UniProt P08581). The data set is described as follows: HUVEC proliferation assay with free c-Met receptor (specificity). Format: cell-based. From the text:
The following assays were used to evaluate the activity of the various compounds discussed herein. Certain of the compounds and groups thereof express-like activity, i.e., they induce scatter, cell proliferation, inhibit apoptosis, among other activities, and if acting through the c-Met receptor, agonize or stimulate c-Met receptor activity. The specificity for such compounds working through the c-Met receptor may be identified by performing the stimulation assay in the presence of free c-Met receptor. Reduction of a proliferative response in the presence of c-Met indicates such specificity.
Cell proliferation assays Endothelial cells (HUVECs) were seeded in 48 well plates at a density of 10,000 to 20,000 cells per well in the normal growth medium (EGM-2-Clonetics) containing 2% fetal bovine serum, FGF, VEGF, IGF, ascorbic acid, EGF, GA, heparin and hydrocortisone. The cells were grown normally in the growth medium for 24 hr at 37 degrees C. and 5% CO2. The cells were then rinsed with RPMI-1% BSA and starved for 1-2 hrs. […] Then the cells were lysed with 0.5M NaOH for 30 min and the radioactivity counted in the beta counter.
The specificity of the stimulation of endothelial cell growth by the compound as measured by ^3H-thymidine incorporation was tested by pre-incubation of cells with the HGF/SF receptor c-met. […]

In data set [5] the test system is mice following removal of the femoral artery. The data set can be described thus: In vivo blood flow improvement assay. As to conditions: administered to mice for seven days following removal of the femoral artery.
The test system of a further data set is VEGF-like activity. The data set can be described thus: Screen for VEGF-like activity in a standard assay. Format: cell-based. As to conditions: for VEGF-like activity: 2 microgram/ml compound. The source says: Compounds were screened for VEGF-like activity in a standard assay using 2 microgram/ml compound.
The mark [6] stands for this setting: 2 microgram/ml, inhibition of HUVEC proliferation.
[7] abbreviates: 6 microgram/ml, inhibition of HUVEC proliferation.
[8] abbreviates: Homo sapiens, without HGF/SF, inhibition of HUVEC proliferation.

Sequence of c-Met receptor (P08581 25-1390): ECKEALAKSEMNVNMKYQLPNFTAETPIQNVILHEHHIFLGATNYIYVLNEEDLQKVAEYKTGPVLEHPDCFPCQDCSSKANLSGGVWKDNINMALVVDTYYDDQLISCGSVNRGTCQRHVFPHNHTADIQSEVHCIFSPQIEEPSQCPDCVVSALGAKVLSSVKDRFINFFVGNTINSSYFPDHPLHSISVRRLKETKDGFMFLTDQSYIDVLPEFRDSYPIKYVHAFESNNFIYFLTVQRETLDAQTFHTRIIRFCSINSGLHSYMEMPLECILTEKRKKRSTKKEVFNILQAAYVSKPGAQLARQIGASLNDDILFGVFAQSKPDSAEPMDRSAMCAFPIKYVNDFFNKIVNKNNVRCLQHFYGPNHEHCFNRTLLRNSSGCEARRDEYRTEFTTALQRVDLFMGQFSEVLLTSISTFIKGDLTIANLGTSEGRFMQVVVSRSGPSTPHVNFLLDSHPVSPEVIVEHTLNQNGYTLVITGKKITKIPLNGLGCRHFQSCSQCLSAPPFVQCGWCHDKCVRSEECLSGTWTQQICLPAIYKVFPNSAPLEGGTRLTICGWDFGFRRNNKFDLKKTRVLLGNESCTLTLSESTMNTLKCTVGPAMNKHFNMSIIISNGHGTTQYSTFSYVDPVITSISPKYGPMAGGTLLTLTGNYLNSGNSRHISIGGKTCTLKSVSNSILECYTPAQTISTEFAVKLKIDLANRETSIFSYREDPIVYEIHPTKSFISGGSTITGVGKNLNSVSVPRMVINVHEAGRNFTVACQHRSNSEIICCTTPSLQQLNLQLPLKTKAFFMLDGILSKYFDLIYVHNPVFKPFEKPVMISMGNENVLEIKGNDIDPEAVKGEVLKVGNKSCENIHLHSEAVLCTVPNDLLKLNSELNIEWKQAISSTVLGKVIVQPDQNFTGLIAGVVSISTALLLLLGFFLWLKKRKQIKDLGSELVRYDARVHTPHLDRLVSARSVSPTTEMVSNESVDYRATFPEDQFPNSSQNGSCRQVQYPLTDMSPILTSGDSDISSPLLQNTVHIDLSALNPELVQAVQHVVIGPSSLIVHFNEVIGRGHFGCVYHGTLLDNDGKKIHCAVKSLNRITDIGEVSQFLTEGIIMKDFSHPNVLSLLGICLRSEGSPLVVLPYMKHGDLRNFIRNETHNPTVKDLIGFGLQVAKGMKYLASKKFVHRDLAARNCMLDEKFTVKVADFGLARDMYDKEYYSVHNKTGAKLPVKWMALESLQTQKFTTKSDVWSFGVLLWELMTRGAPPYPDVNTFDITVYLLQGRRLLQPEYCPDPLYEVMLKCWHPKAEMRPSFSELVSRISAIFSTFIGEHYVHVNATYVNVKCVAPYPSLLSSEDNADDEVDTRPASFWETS

On to `Cc1nn(C(=O)c2c(-c3c(Cl)cccc3Cl)noc2C)c(C)c1Cc1c(F)cccc1Cl` [(4-(2-chloro-6-fluorobenzyl)-3,5-dimethyl-1H-pyrazole-1-yl)(3-(2,6-dichlorophenyl)-5-methylisoxazol-4-yl)methanone], for which the inhibition at 2 µg/mL in data set [1] (setting [6]) was in the range of 40 to 90%. Also, the inhibition at 6 µg/mL in data set [1] (setting [7]) lay in the range of 50 to 100%. The “Activity at 2 microgram/ml Without HGF/SF (result in words)” value in data set [2] (without HGF/SF) is listed as “No effect”. Further, the “ingrowth of blood vessels into Matrigel plug” value in data set [3] is listed as “significant stimulation of blood vessel ingrowth”. Moreover, in the data set on DU145 cells, the DU145 cell growth entry is “dose responsive inhibition”.

In the case of `O=C(c1ccc(Cl)cc1)n1ccc(C=Cc2cccs2)n1` [(4-chlorophenyl)[3-(2-(2-thienyl)vinyl)-1H-pyrazol-1-yl]methanone], the “protection from adriamycin-induced apoptosis” value (“protection” below) with another cell line is listed as 90%. In data set [2] (compound by itself, 6 microgram/ml), the “stimulation of 3H-thymidine incorporation” value came to 84%. Moreover, in [4], the “protection” value is 94% and the “cell viability, substance alone” value is “unchanged”. Besides, in the data set with MDCK cells, the “scatter of MDCK cells” value is listed as “caused scattering of MDCK cells similar to that seen with HGF/SF”. Moreover, the “inhibition of the compound's stimulation of 3H-thymidine incorporation in the presence of c-Met” value on c-Met receptor (compound 6 microgram/ml plus c-Met receptor 100 microgram/ml) turned out to be 75%. The “compound-induced EC proliferation blocked in the presence of C-met receptor” value at c-Met receptor (compound 12 microgram/ml incubated with C-met receptor 5 microgram/ml for 30 min, then added to cells) is on record as 40%. Moreover, in [5], the blood flow result is “significant improvement in blood flow”.

Take `COc1cccc2c1C(=O)c1c(O)c3c(c(O)c1C2=O)C[C@@](O)(C(=O)CO)C[C@@H]3O[C@H]1C[C@H](N)[C@H](O)[C@H](C)O1` [Adriamycin, reference compound]: the cell viability in data set [4] (Adriamycin (15 µM)) was 56 % of control.

Regarding `Cc1onc(-c2c(Cl)cccc2Cl)c1C(=O)NNc1c(Cl)cncc1Cl` [N′4-(3,5-dichloro-4-pyridyl)-3-(2,6-dichlorophenyl)-5-methylisoxazole-4-carbohydrazide], the inhibition at 2 µg/mL in [1] (setting [6]) is 25%. Also, the inhibition at 6 µg/mL in data set [1] (setting [7]) turned out to be 25%. Further, the “Activity at 2 microgram/ml Without HGF/SF (result in words)” value in data set [2] (without HGF/SF) is “No effect”. In data set [2] (6 microgram/ml, without HGF/SF), the “Activity at 6 microgram/ml Without HGF/SF (result in words)” value was “No effect”.

`COc1cc(CCC(=O)NNC(=O)c2c(-c3c(Cl)cccc3Cl)noc2C)cc(OC)c1OC` [N′4-(3-(3,4,5-trimethoxyphenyl)propanoyl)-3-(2,6-dichlorophenyl)-5-methylisoxazole-4-carbohydrazide]: the inhibition at 2 µg/mL in data set [1] (setting [6]) and in data set [2] (setting [8]) was 50% in each case. The “Activity at 6 microgram/ml Without HGF/SF (result in words)” value in data set [2] (6 microgram/ml, without HGF/SF) was “Cytotoxic”.

Take `Cc1onc(-c2c(Cl)cccc2Cl)c1C(=O)NNc1cccc(C(F)(F)F)n1` [N′4-(6-(trifluoromethyl)-2-pyridyl)-3-(2,6-dichlorophenyl)-5-methylisoxazole-4-carbohydrazide]: the results for the inhibition at 2 µg/mL in data set [1] (setting [6]) and in data set [2] (setting [8]) were 50% and 40%, respectively. For the same compound, the inhibition at 6 µg/mL was determined as 80% in data set [1] (setting [7]) and 50% in [2] (Homo sapiens, 6 microgram/ml, without HGF/SF, inhibition of HUVEC proliferation).

As for `Cc1nc(C(=O)NNC(=O)c2c(-c3c(Cl)cccc3Cl)noc2C)cs1` [N′4-((2-methyl-1,3-thiazol-4-4yl)carbonyl)-3-(2,6-dichlorophenyl)-5-methylisoxazole-4-4carbohydrazide], in data set [1] (setting [6]), the “Activity at 2 microgram/ml With HGF/SF: inhibition (blocked SF)” value came out at 50%. Moreover, in [1] (setting [7]), the “Activity at 6 microgram/ml With HGF/SF: inhibition (blocked SF)” value came to 50%. The “Activity at 2 microgram/ml Without HGF/SF (result in words)” value in data set [2] (without HGF/SF) is on record as “No effect”. In addition, the “Activity at 6 microgram/ml Without HGF/SF: stimulation” value in [2] (6 microgram/ml, without HGF/SF, stimulation of HUVEC proliferation) is 52%.

In the case of `Cc1onc(-c2c(Cl)cccc2Cl)c1C(=O)NNc1ccccc1` [N′4-phenyl-3-(2,6-dichlorophenyl)-5-methylisoxazole-4-carbohydrazide], the inhibition at 2 µg/mL in [1] (setting [6]) amounted to 40%. For the same compound, the inhibition at 6 µg/mL in data set [1] (setting [7]) worked out at 80%. Moreover, in data set [2] (without HGF/SF), the “Activity at 2 microgram/ml Without HGF/SF (result in words)” value was “No effect”. The “Activity at 6 microgram/ml Without HGF/SF (result in words)” value in [2] (6 microgram/ml, without HGF/SF) is reported as “No effect”.

Consider `O=C1c2ccccc2N(c2ccccc2)C(=O)C1(Br)Br` [VC8, 3,3-dibromo-1-phenyl-1,2,3,4-tetrahydroquinoline-2,4-dione], for which the VEGF-like activity result in the data set with VEGF-like activity is on record as “positive activity”.

In the case of `CN(C)c1nc(-c2ccccc2)nc(-c2ccc(Cl)cc2)c1C#N` [VC14, 4-(4-chlorophenyl)-6-(dimethylamino)-2-phenyl-5-pyrimidinecarbonitrile], the VEGF-like activity entry with VEGF-like activity is recorded as “positive activity”.

With `c1ccc(-c2cc(-c3ccccc3)c(-c3ccccc3)c(-c3ccccc3)c2-c2ccccc2)cc1` [pentaphenylbenzene], the “Inhibition at 6-12 micrograms/ml With” value in data set [1] (6-12 micrograms/ml, inhibition of endothelial cell proliferation) amounted to 50% inhibition. In addition, the “Stimulation at 6-12 micrograms/ml Without HGF/SF” value in data set [2] (6-12 micrograms/ml, without HGF/SF, stimulation of endothelial cell proliferation) was “two to three fold stimulation”.

Turning to `c1ccc(-c2sc(-c3ccccc3)c(-c3ccccc3)c2-c2ccccc2)cc1` [tetraphenylthiophene], the “Stimulation/Inhibition at 6-12 micrograms/ml With (result in words)” value in data set [1] (6-12 micrograms/ml) is recorded as “No effect”. The “Inhibition at 6-12 micrograms/ml Without HGF/SF” value in data set [2] (6-12 micrograms/ml, without HGF/SF, inhibition of endothelial cell proliferation) is 50% inhibition.

As to “HGF/SF: hepatocyte growth factor/scatter factor, pleiotropic growth factor; evaluated as a positive control”, the “effect on HUVEC proliferation, substance alone (FIG. 5)” value in data set [2] was “increases the proliferation of HUVEC”. In [4], the “protection” value is reported as 94% and the “cell viability, substance alone” value is listed as “unchanged”.

Consider VEGF, for which the “activity of VEGF in the VEGF-like activity assay” value in the data set with VEGF-like activity is 1259±104 cpm.
